Literature values, collected in patent US20260217749A1, “METAL COMPLEX COMPOUNDS AS PHOTOSENSITIZERS FOR PHOTODYNAMIC THERAPY” (UNIVERSITAT DE BARCELONA, priority 2023, published 2026).

Test system: SK-MEL-28 melanoma cells
Details: red light irradiation (625 nm)

IC50: 2.3 µM
SMILES: Cc1ccnc(-c2cc(C)ccn2)c1.Cc1ccnc(-c2cc(C)ccn2)c1.[Cl-].[Cl-].[Ru+2].c1csc(-c2ccc(-c3ccc(-c4nc5c6cccnc6c6ncccc6c5[nH]4)s3)s2)c1 [TLD-1433]
PI value: moderate
